How the values were obtained:
Experiment in all cases: Kinase selectivity, DiscoverX scanMAX Kinase assay panel (% control)
Assay type in all cases: binding
[1] = target: T1, kinases of the scanMAX Kinase assay panel (Homo sapiens, UniProt O76039); conditions: CDKL5; 1 uM
T1 construct: purchased DiscoverX Co. (contract measurement) scanMAX Kinase assay panel
T1 sequence (O76039 1-960): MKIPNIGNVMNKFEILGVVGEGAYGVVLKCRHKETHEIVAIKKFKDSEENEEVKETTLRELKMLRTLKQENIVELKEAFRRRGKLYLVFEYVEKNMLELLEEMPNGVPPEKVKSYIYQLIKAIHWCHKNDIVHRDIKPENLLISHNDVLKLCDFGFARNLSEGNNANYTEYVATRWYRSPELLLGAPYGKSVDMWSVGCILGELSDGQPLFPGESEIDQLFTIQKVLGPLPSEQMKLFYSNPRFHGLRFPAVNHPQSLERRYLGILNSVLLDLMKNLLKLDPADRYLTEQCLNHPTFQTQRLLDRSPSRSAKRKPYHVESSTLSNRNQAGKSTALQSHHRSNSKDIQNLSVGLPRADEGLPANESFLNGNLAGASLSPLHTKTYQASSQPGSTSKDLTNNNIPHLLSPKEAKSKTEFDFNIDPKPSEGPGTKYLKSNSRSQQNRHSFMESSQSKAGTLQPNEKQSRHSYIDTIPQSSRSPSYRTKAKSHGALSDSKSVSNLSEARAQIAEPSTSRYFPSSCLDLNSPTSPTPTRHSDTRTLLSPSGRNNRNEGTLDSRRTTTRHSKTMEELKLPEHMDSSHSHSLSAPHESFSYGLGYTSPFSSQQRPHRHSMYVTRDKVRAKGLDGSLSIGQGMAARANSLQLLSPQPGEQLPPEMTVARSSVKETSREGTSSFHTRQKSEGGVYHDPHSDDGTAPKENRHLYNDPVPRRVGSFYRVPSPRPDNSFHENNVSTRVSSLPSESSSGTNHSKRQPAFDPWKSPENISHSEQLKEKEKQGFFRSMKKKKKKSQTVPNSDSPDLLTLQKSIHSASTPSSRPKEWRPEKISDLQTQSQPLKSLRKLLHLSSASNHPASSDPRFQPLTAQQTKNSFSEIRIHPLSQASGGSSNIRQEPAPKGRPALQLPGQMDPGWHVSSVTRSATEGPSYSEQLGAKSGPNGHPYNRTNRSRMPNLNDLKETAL
Procedure, shortened: (§1)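 Single-point screen, 1 uM cpd in DMSO. % ctrl = (cpd − pos ctrl)/(neg ctrl − pos ctrl)×100; pos ctrl = 0%, DMSO neg ctrl = 100%. Hit cutoff <35%.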

[2] = target: T2, kinases of the scanMAX Kinase assay panel (Homo sapiens, UniProt Q9UPZ9); conditions: ICK; 1 uM
T2 construct: purchased DiscoverX Co. (contract measurement) scanMAX Kinase assay panel
T2 sequence (Q9UPZ9 1-632): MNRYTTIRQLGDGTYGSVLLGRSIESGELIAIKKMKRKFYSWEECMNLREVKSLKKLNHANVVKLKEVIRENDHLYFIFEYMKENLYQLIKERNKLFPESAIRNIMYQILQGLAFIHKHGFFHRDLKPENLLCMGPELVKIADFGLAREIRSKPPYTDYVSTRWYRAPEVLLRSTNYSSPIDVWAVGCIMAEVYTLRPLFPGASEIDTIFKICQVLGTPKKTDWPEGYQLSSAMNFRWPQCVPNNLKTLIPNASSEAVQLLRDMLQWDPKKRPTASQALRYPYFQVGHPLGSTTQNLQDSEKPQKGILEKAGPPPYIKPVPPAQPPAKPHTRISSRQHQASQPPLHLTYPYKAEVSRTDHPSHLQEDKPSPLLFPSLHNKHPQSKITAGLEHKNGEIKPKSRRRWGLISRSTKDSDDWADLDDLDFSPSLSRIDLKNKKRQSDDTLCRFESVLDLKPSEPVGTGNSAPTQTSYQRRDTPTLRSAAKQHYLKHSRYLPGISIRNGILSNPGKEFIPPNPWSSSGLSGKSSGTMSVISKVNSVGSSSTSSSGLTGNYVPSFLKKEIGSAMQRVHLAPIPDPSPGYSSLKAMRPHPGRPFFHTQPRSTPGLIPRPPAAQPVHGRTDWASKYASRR
Procedure, shortened: as §1

[3] = target: T3, kinases of the scanMAX Kinase assay panel (Homo sapiens, UniProt Q9H2X6); conditions: HIPK2; 1 uM
T3 construct: purchased DiscoverX Co. (contract measurement) scanMAX Kinase assay panel
Procedure, shortened: as §1

[4] = target: T4, kinases of the scanMAX Kinase assay panel (Homo sapiens, UniProt Q9P289); conditions: MST4; 1 uM
T4 construct: purchased DiscoverX Co. (contract measurement) scanMAX Kinase assay panel
Procedure, shortened: as §1

[5] = target: T5, kinases of the scanMAX Kinase assay panel (Homo sapiens, UniProt O96013); conditions: PAK4; 1 uM
T5 construct: purchased DiscoverX Co. (contract measurement) scanMAX Kinase assay panel
Procedure, shortened: as §1

[6] = target: T6, kinases of the scanMAX Kinase assay panel (Homo sapiens, UniProt Q13705); conditions: ACVR2B; 1 uM
T6 construct: purchased DiscoverX Co. (contract measurement) scanMAX Kinase assay panel
Procedure, shortened: as §1

[7] = target: T7, kinases of the scanMAX Kinase assay panel (Homo sapiens, UniProt P36896); conditions: ACVR1B; 1 uM
T7 construct: purchased DiscoverX Co. (contract measurement) scanMAX Kinase assay panel
T7 sequence (P36896 24-505): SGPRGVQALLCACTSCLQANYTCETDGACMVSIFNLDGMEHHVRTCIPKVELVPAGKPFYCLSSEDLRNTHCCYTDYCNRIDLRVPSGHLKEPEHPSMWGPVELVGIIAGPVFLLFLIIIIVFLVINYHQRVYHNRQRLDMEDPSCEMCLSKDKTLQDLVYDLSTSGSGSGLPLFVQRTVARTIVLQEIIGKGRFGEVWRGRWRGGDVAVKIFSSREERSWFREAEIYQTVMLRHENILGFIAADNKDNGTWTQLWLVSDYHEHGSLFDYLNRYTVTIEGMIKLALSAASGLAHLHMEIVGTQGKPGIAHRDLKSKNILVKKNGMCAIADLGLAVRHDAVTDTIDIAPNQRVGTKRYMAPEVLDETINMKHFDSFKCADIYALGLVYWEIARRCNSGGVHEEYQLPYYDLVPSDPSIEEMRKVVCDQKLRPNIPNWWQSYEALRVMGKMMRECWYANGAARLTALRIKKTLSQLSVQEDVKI
Procedure, shortened: as §1

[8] = target: T8, kinases of the scanMAX Kinase assay panel (Homo sapiens, UniProt P07332); conditions: FES; 1 uM
T8 construct: purchased DiscoverX Co. (contract measurement) scanMAX Kinase assay panel
Procedure, shortened: as §1

T4 sequence (Q9P289 whole entry): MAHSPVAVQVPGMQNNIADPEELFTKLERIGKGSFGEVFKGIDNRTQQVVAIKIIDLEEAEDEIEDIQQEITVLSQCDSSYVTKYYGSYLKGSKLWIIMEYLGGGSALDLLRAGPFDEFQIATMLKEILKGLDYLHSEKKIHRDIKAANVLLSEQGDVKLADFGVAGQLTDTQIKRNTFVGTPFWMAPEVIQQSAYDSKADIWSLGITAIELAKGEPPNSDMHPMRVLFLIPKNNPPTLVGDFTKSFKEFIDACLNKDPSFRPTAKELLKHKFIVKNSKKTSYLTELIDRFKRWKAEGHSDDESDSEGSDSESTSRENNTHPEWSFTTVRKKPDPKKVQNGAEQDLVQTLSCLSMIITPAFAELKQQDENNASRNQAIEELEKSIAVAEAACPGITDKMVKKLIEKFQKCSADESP
T3 sequence (Q9H2X6 whole entry): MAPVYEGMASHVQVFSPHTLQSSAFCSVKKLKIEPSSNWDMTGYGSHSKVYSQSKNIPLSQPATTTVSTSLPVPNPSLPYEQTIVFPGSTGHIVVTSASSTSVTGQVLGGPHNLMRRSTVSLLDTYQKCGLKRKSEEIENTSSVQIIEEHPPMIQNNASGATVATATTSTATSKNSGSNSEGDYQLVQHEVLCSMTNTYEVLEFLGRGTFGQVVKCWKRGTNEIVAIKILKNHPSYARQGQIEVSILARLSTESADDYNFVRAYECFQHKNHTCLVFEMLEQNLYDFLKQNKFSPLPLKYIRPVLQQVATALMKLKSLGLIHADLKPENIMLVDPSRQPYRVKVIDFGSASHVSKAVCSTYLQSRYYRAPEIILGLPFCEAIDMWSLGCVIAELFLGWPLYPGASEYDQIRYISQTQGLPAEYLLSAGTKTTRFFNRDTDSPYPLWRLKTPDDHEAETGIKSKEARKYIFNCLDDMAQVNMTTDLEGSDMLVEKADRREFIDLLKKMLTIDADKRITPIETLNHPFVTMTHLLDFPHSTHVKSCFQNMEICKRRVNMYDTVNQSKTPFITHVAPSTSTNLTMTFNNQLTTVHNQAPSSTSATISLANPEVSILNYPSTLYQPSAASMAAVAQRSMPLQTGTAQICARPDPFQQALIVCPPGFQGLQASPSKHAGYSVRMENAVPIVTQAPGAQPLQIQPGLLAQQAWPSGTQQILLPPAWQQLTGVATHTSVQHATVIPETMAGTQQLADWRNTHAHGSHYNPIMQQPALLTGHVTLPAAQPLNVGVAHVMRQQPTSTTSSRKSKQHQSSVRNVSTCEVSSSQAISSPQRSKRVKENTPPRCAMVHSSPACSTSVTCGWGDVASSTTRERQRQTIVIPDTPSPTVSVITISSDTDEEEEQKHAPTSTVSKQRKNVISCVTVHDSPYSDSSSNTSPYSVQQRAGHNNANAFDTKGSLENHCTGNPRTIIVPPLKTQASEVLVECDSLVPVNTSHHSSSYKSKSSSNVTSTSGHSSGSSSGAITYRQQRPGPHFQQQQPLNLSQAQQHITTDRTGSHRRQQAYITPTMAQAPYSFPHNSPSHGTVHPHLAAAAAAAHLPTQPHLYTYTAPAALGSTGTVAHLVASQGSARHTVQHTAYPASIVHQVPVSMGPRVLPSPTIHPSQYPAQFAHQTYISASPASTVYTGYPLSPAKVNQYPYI
T8 sequence (P07332 whole entry): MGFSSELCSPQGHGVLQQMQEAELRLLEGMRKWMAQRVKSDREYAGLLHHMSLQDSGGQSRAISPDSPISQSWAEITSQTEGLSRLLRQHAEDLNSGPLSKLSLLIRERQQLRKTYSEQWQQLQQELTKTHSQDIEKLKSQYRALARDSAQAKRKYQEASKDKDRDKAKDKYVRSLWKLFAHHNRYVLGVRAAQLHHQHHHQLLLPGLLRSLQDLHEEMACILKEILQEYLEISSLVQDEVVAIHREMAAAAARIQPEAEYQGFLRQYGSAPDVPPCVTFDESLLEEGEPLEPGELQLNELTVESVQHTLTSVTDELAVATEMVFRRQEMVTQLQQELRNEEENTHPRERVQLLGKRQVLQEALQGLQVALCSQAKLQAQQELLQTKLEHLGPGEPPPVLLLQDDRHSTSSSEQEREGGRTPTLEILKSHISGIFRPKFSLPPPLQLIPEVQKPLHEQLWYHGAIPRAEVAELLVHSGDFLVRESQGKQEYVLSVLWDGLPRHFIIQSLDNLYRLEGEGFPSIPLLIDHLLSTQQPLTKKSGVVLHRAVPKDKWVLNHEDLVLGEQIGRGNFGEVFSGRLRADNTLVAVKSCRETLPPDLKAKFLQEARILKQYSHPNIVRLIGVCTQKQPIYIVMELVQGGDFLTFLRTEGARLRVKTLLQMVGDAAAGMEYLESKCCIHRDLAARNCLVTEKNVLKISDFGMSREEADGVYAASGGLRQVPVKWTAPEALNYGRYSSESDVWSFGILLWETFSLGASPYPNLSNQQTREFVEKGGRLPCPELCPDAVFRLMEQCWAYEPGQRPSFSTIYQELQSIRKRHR
T5 sequence (O96013 whole entry): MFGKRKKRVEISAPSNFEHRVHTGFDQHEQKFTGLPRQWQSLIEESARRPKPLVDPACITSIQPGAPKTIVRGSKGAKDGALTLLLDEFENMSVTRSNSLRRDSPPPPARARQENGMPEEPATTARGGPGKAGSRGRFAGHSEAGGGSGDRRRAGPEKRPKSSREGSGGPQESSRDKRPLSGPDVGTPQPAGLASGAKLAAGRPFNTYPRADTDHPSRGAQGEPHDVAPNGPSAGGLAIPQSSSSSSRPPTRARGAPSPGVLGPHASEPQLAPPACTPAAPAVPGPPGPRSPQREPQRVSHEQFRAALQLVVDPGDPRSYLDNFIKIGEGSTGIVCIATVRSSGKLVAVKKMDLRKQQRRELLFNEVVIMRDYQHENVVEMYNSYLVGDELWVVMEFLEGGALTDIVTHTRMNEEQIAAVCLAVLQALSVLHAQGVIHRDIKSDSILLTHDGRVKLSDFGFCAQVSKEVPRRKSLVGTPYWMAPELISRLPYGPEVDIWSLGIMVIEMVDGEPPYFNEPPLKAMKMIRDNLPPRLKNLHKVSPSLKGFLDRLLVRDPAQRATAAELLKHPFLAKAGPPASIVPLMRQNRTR
T6 sequence (Q13705 19-512): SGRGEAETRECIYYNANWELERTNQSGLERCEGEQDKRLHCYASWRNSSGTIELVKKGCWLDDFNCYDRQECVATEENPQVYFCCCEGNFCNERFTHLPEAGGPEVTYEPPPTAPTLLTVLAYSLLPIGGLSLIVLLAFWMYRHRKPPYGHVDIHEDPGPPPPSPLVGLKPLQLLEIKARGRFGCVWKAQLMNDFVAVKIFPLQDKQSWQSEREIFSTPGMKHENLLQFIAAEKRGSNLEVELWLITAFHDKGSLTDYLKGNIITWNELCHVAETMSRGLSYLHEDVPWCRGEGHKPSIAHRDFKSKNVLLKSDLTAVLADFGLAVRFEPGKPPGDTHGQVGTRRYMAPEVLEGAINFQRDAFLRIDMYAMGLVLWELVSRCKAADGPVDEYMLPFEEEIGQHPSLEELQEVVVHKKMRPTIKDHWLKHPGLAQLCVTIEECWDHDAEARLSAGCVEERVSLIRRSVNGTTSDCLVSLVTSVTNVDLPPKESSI

CNc1nc(Nc2ccc(C(=O)N3CCOCC3)cc2OC)nc2[nH]cc(C#N)c12 [Example 1, 2-((2-methoxy-4-(morpholine-4-carbonyl)phenyl)amino)-4-(methylamino)-7H-pyrrolo[2,3-d]pyrimidine-5-carbonitrile]
remaining binding at 1 µM [1]: 76% | remaining binding at 1 µM [2]: 73% | remaining binding at 1 µM [3]: 47% | remaining binding at 1 µM [4]: 69% | remaining binding at 1 µM [5]: 79% | remaining binding at 1 µM [6]: 100% | remaining binding at 1 µM [7]: 86% | remaining binding at 1 µM [8]: 61%

CC1(Nc2nc(Nc3cnn([C@H]4CCN(C5COC5)C[C@@H]4F)c3Cl)nc3[nH]cc(C#N)c23)CC1 [Example 52, 2-((5-chloro-1-((3S,4S)-3-fluoro-1-(oxetane-3-yl)piperidine-4-yl)-1H-pyrazole-4-yl)amino)((1-methylcyclopropyl)amino)-7H-pyrrolo[2,3-d]pyrimidine-5-carbonitrile]
remaining binding at 1 µM [1]: 100% | remaining binding at 1 µM [2]: 71% | remaining binding at 1 µM [3]: 13% | remaining binding at 1 µM [4]: 28% | remaining binding at 1 µM [5]: 3.4% | remaining binding at 1 µM [6]: 85% | remaining binding at 1 µM [7]: 92% | remaining binding at 1 µM [8]: 1.3%

CCNc1nc(Nc2ccc(C(=O)N3CCC(N4CCOCC4)CC3)cc2OC)nc2[nH]cc(C(F)(F)F)c12 [Example 104, (4-((4-(ethylamino)-5-(trifluoromethyl)-7H-pyrrolo[2,3-d]pyrimidine-2-yl)amino)-3-methoxyphenyl)(4-morpholinopiperidine-1-yl)methanone]
remaining binding at 1 µM [1]: 100% | remaining binding at 1 µM [2]: 96% | remaining binding at 1 µM [3]: 14% | remaining binding at 1 µM [4]: 100% | remaining binding at 1 µM [5]: 100% | remaining binding at 1 µM [6]: 100% | remaining binding at 1 µM [7]: 100% | remaining binding at 1 µM [8]: 36%
